Read-outs that look alike come from different tables or passages of the source.
Tests used:
Solubility in water = experiment: Solubility in water
Experimental: Garden cress powder, prepared by drying at 45° C. and containing about […] BITC, and watercress powder, prepared by drying at 50° C. and containing about […] PEITC, were mixed in equal parts. From the mixture, 500 mg were added to a 50 mL conical vial to which 10 mL of water was added and the mixture homogenized for 2 minutes. The mixture was extracted twice with 10 mL safflower oil using homogenization at level 6 (Omni 5000 Mixer) for one minute and centrifuged for 3 minutes at 8,000×g. The oil fractions were collected, pooled and the volume brought up to 25 mL.

[1] = Dissolution of purchased BITC and PEITC in safflower oil (how much can be stored in the oil); type: physicochemical; settings: composition in safflower oil (78.91 % volume oil)
Excerpt: BITC and PEITC were purchased from Aldrich (Sigma-Aldrich, Milwaukee, Wis.) and dissolved in safflower oil to determine how much of the non-polar isothiocyanates could be stored in the oil.

S=C=NCc1ccccc1 [BITC, Benzyl isothiocyanate]
solubility in water (Solubility in water; water, no test described): not soluble in water
% Volume [1]: 11.50 % Volume
ppm (mg/L) [1]: 129,430 ppm (mg/L)

S=C=NCCc1ccccc1 [PEITC, phenethyl isothiocyanate]
solubility in water (Solubility in water): not soluble in water
% Volume [1]: 9.59 % Volume
ppm (mg/L) [1]: 104,540 ppm (mg/L)
